Reference: patent US20160024175A1, “CHEMOTHERAPY-RESISTANT IMMUNE CELLS” (priority 2013, published 2016)
Where two headings read alike, the source gives them in different places.

Key:
U373.eGFP.FFLuc cells = assay: Coculture of U373.eGFP.FFLuc tumor cells with T cells with or without TMZ, tumor killing by fluorescence microscopy; format: cell-based; details: TMZ with non-transduced (NT) T cells
Experimental: Tumor killing was evaluated by fluorescence microscopy.
Both TMZ and HER2.CAR T cells have anti-GBM activity on their own; however, it is unknown whether combining the agents provides additional benefit.

HER2.CAR T cells = assay: Expansion of HER2.CAR T cells with IL-2 under repeated TMZ treatment (cell counts every three days); format: cell-based; details: 100 μM TMZ, retreated every three days, 100 U/ml IL-2; n=4 donors; p<0.05
Experimental: 1×10^6 HER2.CAR T cells were plated on day 1 with 100 U/ml of IL-2 and treated with 100 μM TMZ. Every three days, the T cells were counted, given fresh IL-2, and retreated with TMZ.
To do this, 1×10^6 HER2.CAR T cells were plated with 100 U/ml of IL-2 and treated with 100 μM TMZ (day 1). Every three days, the T cells were counted, given fresh IL-2, and re-treated with TMZ.

[1] = system: glioblastoma multiforme (GBM); details: cited from earlier work; for median overall survival: GBM patients receiving TMZ

In the case of Cn1nnc2c(C(N)=O)ncn2c1=O [TMZ, 3-methyl-4-oxo-3H,4H-imidazo[4,3-d][1,2,3,5]tetrazine-8-carboxamide], the “antitumor activity / tumor killing” value (U373.eGFP.FFLuc cells) is listed as “limited antitumor activity”, the “effect of TMZ on T-cell expansion” value (HER2.CAR T cells) is listed as “effectively prevented T-cell expansion” and the median overall survival ([1]; methylated MGMT promoters) is listed as 21.7 months. The median overall survival ([1]; unmethylated MGMT promoters) was 12.7 months and the overall survival ([1]; phase III trial, TMZ with radiation therapy vs. radiotherapy alone, GBM patients) was “significantly improve the overall survival”.
